Columns and labels:
[1] = molecular target: Human immunodeficiency virus type 1 reverse transcriptase (Human immunodeficiency virus 1) (UniProt Q72547); assay: Inhibition against HIV- reverse transcriptase in cell culture at 20 ug/mL
[2] = tested on: Human immunodeficiency virus 1; assay: Anti-HIV activity in cell culture assay expressed as EC50 values.; type: functional, organism-based; conditions: Human immunodeficiency virus 1
[3] = tested on: Human immunodeficiency virus 1; assay: Inhibition against HIV replication in cell culture at 20 ug/mL; type: functional; conditions: Human immunodeficiency virus 1
[4] = tested on: Human immunodeficiency virus 1; assay: Anti-HIV activity in cell culture assay expressed as IC50 values.; type: functional, organism-based
[5] = tested on: Human immunodeficiency virus 1; assay: Therapeutic index was determined; conditions: read-out: Therapeutic index

| Compound | inhibition [1] [%] | EC50 [2] [µM] | inhibition at 20 µg/mL [3] [%] | IC50 ([4]; Human immunodeficiency virus 1) [µM] | selectivity ratio [5] | IC50 [4] [µM] |
| --- | --- | --- | --- | --- | --- | --- |
| O=C(OC[C@H]1OC(O)[C@@](O)(COC(=O)c2cc(O)c(O)c(O)c2)[C@@H]1OC(=O)c1cc(O)c(O)c(O)c1)c1cc(O)c(O)c(O)c1 (stereo partly specified) | 25 | 45 | 30 | 40 | 0.9 |  |
| O=C(O[C@H]1[C@H](O)C[C@](O)(C(=O)O)C[C@H]1O)c1cc(O)c(O)c(O)c1 | 0 | > 100 | 0 | 80 | < 0.8 |  |
| O=C(O[C@@H]1Cc2c(O)cc(O)cc2O[C@@H]1c1ccc(O)c(O)c1)c1cc(O)c(O)c(O)c1 [EPICATECHIN GALLATE] | 5 | > 25 | 40 | > 25 |  |  |
| O=C(OC[C@H]1O[C@@H](OC(=O)c2cc(O)c(O)c(O)c2)[C@H](OC(=O)c2cc(O)c(O)c(O)c2)[C@@H](OC(=O)c2cc(O)c(O)c(O)c2)[C@@H]1OC(=O)c1cc(O)c(O)c(O)c1)c1cc(O)c(O)c(O)c1 (stereo in doubt; 10) | 2 |  |  |  |  |  |
| O=C(O[C@@H]1O[C@@H]2COC(=O)c3cc(O)c(O)c(O)c3-c3c(cc(O)c(O)c3O)C(=O)O[C@H]([C@H]1OC(=O)c1cc(O)c(O)c(O)c1)[C@@H]2OC(=O)c1cc(O)c(O)c(O)c1)c1cc(O)c(O)c(O)c1 [PUNICAFOLIN] | 0 | 19 | 60 | 34 | 1.8 |  |
| Oc1cc(O)c2c(c1)O[C@H](c1ccc(O)c(O)c1)[C@H](O)[C@H]2c1c(O)cc(O)c2c1O[C@@]1(c3ccc(O)c(O)c3)Oc3cc(O)c4c(c3[C@@H]2[C@H]1O)O[C@H](c1ccc(O)c(O)c1)[C@H](O)[C@H]4c1c(O)cc(O)c2c1O[C@H](c1ccc(O)c(O)c1)[C@H](O)C2 [CINNAMTANNIN B2] | 19 | 15 | 73 | > 25 | > 1.7 |  |
| O=C(O[C@H]1[C@H](O)C[C@](OC(=O)c2cc(O)c(O)c(O)c2)(C(=O)O)C[C@H]1O)c1cc(O)c(O)c(O)c1 | 0 | 25 | 65 | 45 | 1.8 |  |
| O=C(OC[C@H]1O[C@@H](OC(=O)c2cc(O)c(O)c(O)c2)[C@H](OC(=O)c2cc(O)c(O)c(O)c2)[C@@H](OC(=O)c2cc(O)c(O)c(O)c2)[C@@H]1OC(=O)c1cc(O)c(O)c(O)c1)c1cc(O)c(O)c(O)c1 (stereo in doubt; 11) [PENTAGALLOYL GLUCOSE] |  | 18 | 65 |  | 2.5 | 45 |
| Oc1cc(O)c2c(c1)O[C@@]1(c3ccc(O)c(O)c3)Oc3cc(O)c4c(c3[C@@H]2[C@H]1O)O[C@H](c1ccc(O)c(O)c1)[C@H](O)C4 [PROANTHOCYANIDIN A2] | 18 | > 25 | 30 | > 25 |  |  |
| Oc1cc(O)c2c(c1)O[C@H](c1ccc(O)c(O)c1)[C@H](O)[C@H]2c1c(O)cc(O)c2c1O[C@H](c1ccc(O)c(O)c1)[C@H](O)C2 [PROCYANIDIN B2] | 21 | > 25 | 40 | > 25 |  |  |
| O=C(/C=C/c1ccc(O)c2c1[C@H](C(=O)O[C@H](Cc1ccc(O)c(O)c1)C(=O)O)[C@@H](c1ccc(O)c(O)c1)O2)O[C@H](Cc1ccc(O)c(O)c1)C(=O)O [MAGNESIUM LITHOSPERMATE B] | 18 | > 25 | 35 | > 25 |  |  |
| O=C(OC[C@H]1O[C@@H](OC(=O)c2cc(O)c(O)c(O)c2)[C@H](OC(=O)c2cc(O)c(O)c(O)c2)[C@@H](OC(=O)c2cc(O)c(O)c(O)c2)[C@@H]1OC(=O)c1cc(O)c(O)c(O)c1)c1cc(O)c(O)c(O)c1 (stereo in doubt; 11) | 0 |  |  |  |  |  |
| O=C(O[C@@H]1[C@@H](c2c(O)cc(O)c3c2O[C@H](c2ccc(O)c(O)c2)[C@H](OC(=O)c2cc(O)c(O)c(O)c2)C3)c2c(O)cc(O)cc2O[C@@H]1c1ccc(O)c(O)c1)c1cc(O)c(O)c(O)c1 | 0 | 14 | 90 | > 25 |  |  |

— ChEMBL document CHEMBL1126373, “HIV and reverse transcriptase inhibition by tannins” (Bioorg Med Chem Lett, 1992)
